Test results reported in PubChem BioAssay (NCI).
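Compound exposure: 48 hours, 5 concentrations, 96-well plates. Here, GI50 denotes the concentration required for 50% inhibition of growth. Definition used: TGI = concentration required for complete inhibition of growth.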

Key:
Assay in all cases: DTP human tumour cell line panel, 48 h
[1] = system: CCRF-CEM leukemia
[2] = system: A549 NSCLC
[3] = system: NCI-H522 lung
[4] = system: SN12C renal
[5] = system: TK-10 renal
[6] = system: SK-OV-3 ovarian
[7] = system: SK-MEL-2 melanoma
[8] = system: NCI/ADR-RES ovarian
[9] = system: DU-145 prostate
[10] = system: HOP-92 NSCLC
[11] = system: EKVX NSCLC
[12] = system: KM12 colon
[13] = system: SW-620 colon
[14] = system: LOX IMVI melanoma
[15] = system: MDA-MB-435
[16] = system: SK-MEL-5 melanoma
[17] = system: SNB-19 CNS
[18] = system: OVCAR-4 ovarian
[19] = system: SF-539 CNS
[20] = system: HT29 colon
[21] = system: UACC-257 melanoma
[22] = system: HCT-116 colon
[23] = system: SK-MEL-28 melanoma
[24] = system: CAKI-1 renal
[25] = system: HS 578T breast
[26] = system: MCF7 breast
[27] = system: U251 CNS
[28] = system: BT-549 breast
[29] = system: OVCAR-8 ovarian
[30] = system: HCT-15 colon
[31] = system: A498 renal
[32] = system: MOLT-4 leukemia
[33] = system: NCI-H226 lung
[34] = system: 786-0 renal
[35] = system: SNB-75 CNS
[36] = system: UO-31 renal
[37] = system: T-47D breast
[38] = system: HL-60(TB) leukemia
[39] = system: M14 melanoma
[40] = system: COLO 205 colon
[41] = system: SR leukemia
[42] = system: SF-268 CNS
[43] = system: OVCAR-3 ovarian
[44] = system: IGROV1 ovarian
[45] = system: PC-3 prostate
[46] = system: K-562 leukemia
[47] = system: RXF 393 renal
[48] = system: ACHN renal
[49] = system: MDA-MB-231 breast
[50] = system: OVCAR-5 ovarian
[51] = system: SF-295 CNS
[52] = system: UACC-62 melanoma
[53] = system: MALME-3M melanoma
[54] = system: NCI-H23 lung
[55] = system: RPMI-8226 leukemia
[56] = system: NCI-H460 lung
[57] = system: HOP-62 NSCLC
[58] = system: HCC-2998 colon

Oc1ccc(CCCCCCc2ccc(O)cc2)cc1
GI50 [1]: 0.0471 µM
TGI [1]: 32.8 µM
GI50 [2]: 6.62 µM
TGI [2]: 23 µM
GI50 [3]: 5.98 µM
TGI [3]: 24.2 µM
GI50 [4]: 9.22 µM
TGI [4]: 24.3 µM
GI50 [5]: 19.7 µM
TGI [5]: > 57.3 µM
GI50 [6]: 11.8 µM
TGI [6]: 34.1 µM
GI50 [7]: 16 µM
TGI [7]: 35.5 µM
GI50 [8]: 3.99 µM
TGI [8]: 17.4 µM
GI50 [9]: 4.8 µM
TGI [9]: 15.2 µM
GI50 [10]: 6.99 µM
TGI [10]: 20.5 µM
GI50 [11]: 10.3 µM
TGI [11]: 26.7 µM
GI50 [12]: 6.54 µM
TGI [12]: 19.8 µM
GI50 [13]: 7.29 µM
TGI [13]: 20.5 µM
GI50 [14]: 1.5 µM
TGI [14]: 17.9 µM
GI50 [15]: 11.8 µM
TGI [15]: 26.9 µM
GI50 [16]: 5.27 µM
TGI [16]: 17.1 µM
GI50 [17]: 12.6 µM
TGI [17]: 25.5 µM
GI50 [18]: 14.4 µM
TGI [18]: > 46.9 µM
GI50 [19]: 2.46 µM
TGI [19]: 13.7 µM
GI50 [20]: 17 µM
TGI [20]: 34.5 µM
GI50 [21]: 13.9 µM
TGI [21]: 28.4 µM
GI50 [22]: 9.68 µM
TGI [22]: 22.5 µM
GI50 [23]: 17 µM
TGI [23]: 31.5 µM
GI50 [24]: 1.75 µM
TGI [24]: 7.58 µM
GI50 [25]: 13.3 µM
TGI [25]: 37.4 µM
GI50 [26]: 6.91 µM
TGI [26]: 22.3 µM
GI50 [27]: 5.61 µM
TGI [27]: 19.8 µM
GI50 [28]: 2.94 µM
TGI [28]: 18.7 µM
GI50 [29]: 5.18 µM
TGI [29]: 20.2 µM
GI50 [30]: 12.3 µM
TGI [30]: 26.6 µM
GI50 [31]: 11.4 µM
TGI [31]: 23.5 µM
GI50 [32]: 0.566 µM
TGI [32]: 27.9 µM
GI50 [33]: 15.7 µM
TGI [33]: 32.9 µM
GI50 [34]: 3.65 µM
TGI [34]: 15.1 µM
GI50 [35]: 11.6 µM
TGI [35]: 35.3 µM
GI50 [36]: 2.36 µM
TGI [36]: 15 µM
GI50 [37]: 8.03 µM
TGI [37]: 27.2 µM
GI50 [38]: 0.839 µM
TGI [38]: 18.7 µM
GI50 [39]: 4.7 µM
TGI [39]: 17.5 µM
GI50 [40]: 15.2 µM
TGI [40]: 29.4 µM
GI50 [41]: 6.15 µM
TGI [41]: > 100 µM
GI50 [42]: 3.89 µM
TGI [42]: 17.5 µM
GI50 [43]: 6.02 µM
TGI [43]: 17.8 µM
GI50 [44]: 8.83 µM
TGI [44]: 28.4 µM
GI50 [45]: 9.87 µM
TGI [45]: 27.5 µM
GI50 [46]: 6.81 µM
TGI [46]: > 75.1 µM
GI50 [47]: 8.03 µM
TGI [47]: 21.5 µM
GI50 [48]: 1.55 µM
TGI [48]: 12 µM
GI50 [49]: 9.66 µM
TGI [49]: 25.9 µM
GI50 [50]: 16.9 µM
TGI [50]: 31.4 µM
GI50 [51]: 3.18 µM
TGI [51]: 15.5 µM
GI50 [52]: 4.24 µM
TGI [52]: 15.3 µM
GI50 [53]: 13.3 µM
TGI [53]: 29.6 µM
GI50 [54]: 7.5 µM
TGI [54]: 21.5 µM
GI50 [55]: 12.1 µM
TGI [55]: > 69 µM
GI50 [56]: 5.88 µM
TGI [56]: 18.9 µM
GI50 [57]: 10.3 µM
TGI [57]: 23.4 µM
GI50 [58]: 11 µM
TGI [58]: 23.2 µM
